What was measured:
[1] = molecular target: T1, cystic fibrosis transmembrane conductance regulator (CFTR) (Homo sapiens, UniProt P13569); test: YFP fluorescence and Ussing chamber short-circuit current in FRT-hCFTR cells, […]; assay type: cell-based
T1 construct: human CFTR expressed in FRT cells

Anoctamin1 (ANO1) = molecular target: T2, Anoctamin1 (ANO1) (Homo sapiens, UniProt Q5XXA6); test: YFP quenching assay in FRT-ANO1 cells; short-circuit current; whole-cell patch clamp in HEK293; assay type: cell-based
T2 construct: human ANO1 expressed in FRT cells (YFP assay, Ussing chamber) and HEK293 cells (patch clamp)
T2 sequence (Q5XXA6 1-986): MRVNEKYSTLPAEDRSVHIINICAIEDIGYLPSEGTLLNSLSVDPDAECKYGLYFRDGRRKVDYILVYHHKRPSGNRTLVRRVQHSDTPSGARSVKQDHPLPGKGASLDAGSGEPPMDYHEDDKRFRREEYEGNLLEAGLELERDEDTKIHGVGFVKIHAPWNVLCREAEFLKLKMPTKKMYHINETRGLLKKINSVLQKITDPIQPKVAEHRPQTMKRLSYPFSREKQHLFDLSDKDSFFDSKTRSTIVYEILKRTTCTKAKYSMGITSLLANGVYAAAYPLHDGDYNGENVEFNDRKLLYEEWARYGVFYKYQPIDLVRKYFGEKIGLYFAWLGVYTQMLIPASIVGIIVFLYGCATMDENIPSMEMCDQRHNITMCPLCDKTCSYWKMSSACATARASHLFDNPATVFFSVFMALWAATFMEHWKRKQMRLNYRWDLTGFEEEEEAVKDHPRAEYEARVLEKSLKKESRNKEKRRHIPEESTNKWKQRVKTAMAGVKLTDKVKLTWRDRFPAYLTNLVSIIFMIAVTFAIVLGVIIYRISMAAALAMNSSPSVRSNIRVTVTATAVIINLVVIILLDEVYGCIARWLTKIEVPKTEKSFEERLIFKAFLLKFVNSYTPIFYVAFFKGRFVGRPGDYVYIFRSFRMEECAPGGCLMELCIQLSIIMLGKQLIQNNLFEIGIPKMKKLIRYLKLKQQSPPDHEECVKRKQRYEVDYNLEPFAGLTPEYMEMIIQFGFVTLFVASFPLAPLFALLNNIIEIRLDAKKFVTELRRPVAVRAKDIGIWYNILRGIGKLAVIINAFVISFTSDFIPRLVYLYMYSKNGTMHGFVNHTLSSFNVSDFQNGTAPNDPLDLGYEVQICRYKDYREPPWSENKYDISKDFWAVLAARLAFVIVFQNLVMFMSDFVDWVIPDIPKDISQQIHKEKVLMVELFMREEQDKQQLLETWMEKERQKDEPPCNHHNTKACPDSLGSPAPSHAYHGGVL

T1 sequence (P13569 whole entry): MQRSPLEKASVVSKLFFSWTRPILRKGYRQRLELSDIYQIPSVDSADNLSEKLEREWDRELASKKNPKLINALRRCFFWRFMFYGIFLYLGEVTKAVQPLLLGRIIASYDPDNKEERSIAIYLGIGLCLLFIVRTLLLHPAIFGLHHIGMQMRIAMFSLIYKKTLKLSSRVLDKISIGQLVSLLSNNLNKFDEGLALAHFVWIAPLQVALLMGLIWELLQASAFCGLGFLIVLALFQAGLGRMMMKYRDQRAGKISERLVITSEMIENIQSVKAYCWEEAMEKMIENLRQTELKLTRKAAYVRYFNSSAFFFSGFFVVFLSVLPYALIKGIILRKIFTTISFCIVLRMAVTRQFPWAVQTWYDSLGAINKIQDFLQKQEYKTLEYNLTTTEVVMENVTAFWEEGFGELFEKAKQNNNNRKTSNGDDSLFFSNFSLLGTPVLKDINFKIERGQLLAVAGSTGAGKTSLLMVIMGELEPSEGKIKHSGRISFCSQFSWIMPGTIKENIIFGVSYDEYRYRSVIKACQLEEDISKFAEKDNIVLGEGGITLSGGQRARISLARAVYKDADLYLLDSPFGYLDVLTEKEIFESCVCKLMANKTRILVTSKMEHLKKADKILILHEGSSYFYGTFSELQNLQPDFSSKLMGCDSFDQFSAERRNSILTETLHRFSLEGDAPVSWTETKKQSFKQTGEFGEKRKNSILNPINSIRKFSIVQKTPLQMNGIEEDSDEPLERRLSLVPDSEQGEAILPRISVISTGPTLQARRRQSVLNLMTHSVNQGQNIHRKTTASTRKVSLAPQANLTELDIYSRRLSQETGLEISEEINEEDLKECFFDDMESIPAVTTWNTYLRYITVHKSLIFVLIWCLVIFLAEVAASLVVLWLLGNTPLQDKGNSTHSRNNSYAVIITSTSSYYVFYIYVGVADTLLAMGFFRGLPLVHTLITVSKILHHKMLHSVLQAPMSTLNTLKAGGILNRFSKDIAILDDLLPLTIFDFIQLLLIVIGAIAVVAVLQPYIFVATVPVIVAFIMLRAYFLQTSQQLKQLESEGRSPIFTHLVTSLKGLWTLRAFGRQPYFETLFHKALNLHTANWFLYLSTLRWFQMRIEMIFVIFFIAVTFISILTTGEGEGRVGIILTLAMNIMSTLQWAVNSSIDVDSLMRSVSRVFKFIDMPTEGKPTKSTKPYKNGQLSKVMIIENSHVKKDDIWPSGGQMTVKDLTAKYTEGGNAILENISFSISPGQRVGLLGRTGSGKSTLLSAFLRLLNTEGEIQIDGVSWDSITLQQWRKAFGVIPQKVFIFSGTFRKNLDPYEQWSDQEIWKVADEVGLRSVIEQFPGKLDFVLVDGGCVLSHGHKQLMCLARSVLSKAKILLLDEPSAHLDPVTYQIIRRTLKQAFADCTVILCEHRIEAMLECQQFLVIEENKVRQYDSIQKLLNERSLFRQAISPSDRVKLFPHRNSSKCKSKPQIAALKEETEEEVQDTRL

IC50 (Anoctamin1 (ANO1)) | SMILES | YFP fluorescence and Ussing chamber short-circuit current in FRT-hCFTR cells, 10 [1]
 | O=C(O)c1ccc(/C=C2\SC(=S)N(c3cccc(C(F)(F)F)c3)C2=O)cc1 [CFTRinh-172] | forskolin-induced CFTR activity was inhibited by CFTRinh172 (a known CFTR channel inhibitor)
6.58 µM | CC/C(=C(/CC)c1ccc(O)cc1)c1ccc(O)cc1 [DES, diethylstilbestrol] | 
